In patent US20210052741A1, “GENE THERAPY METHODS AND COMPOSITIONS USING AUXOTROPHIC REGULATABLE CELLS” (AUXOLYTIC LTD, priority 2018, published 2021):
Where “and” joins values, the source holds several entries; their conditions need not be identical. Identical values can stand only once.

Assays:
UMPS locus = experiment: InDel quantification by ICE and ICE-D in activated T cells; type: cell-based, human; details: for ICE InDels (%) / ICE-D InDels (%): Cas9 RNP electroporated into activated T cells, 4 days
Description: sgRNAs were acquired with chemical modifications from Synthego Corporation. The sgRNAs were complexed with Cas9 protein (IDT) at a molar ration of 2.5:1 (sgRNA:protein) and electroporated into activated T cells using a 4D-NUCLEOFECTOR™ system (Lonza). 4 days later, cells were harvested, and genomic DNA extracted using QUICKEXTRACT™ DNA Extraction Kit (Epicentre) according to the manufacturer's protocol. The sgRNA target site was amplified with specific primers (Table 18) and the amplicon sequenced by Sanger sequencing (MCLab, South San Francisco).
InDel quantification was performed on the sequences using the interference of CRISPR edits (ICE) and ICE-D online tools (ice.synthego.com) (FIG. 5A).

UMPS edited T cells = experiment: TIDE analysis of UMPS InDels in mixed UMPS edited population; type: cell-based, human
Protocol: Sanger sequencing of the UMPS locus was performed using UMPS-O-1 and UMPS-O-2, with the region amplified using PHUSION™ Hot Start Flex 2x Master Mix (New England Biolabs, Inc.). Sanger sequencing traces were analyzed by TIDE analysis (see, Brinkman et al, 2014, Nucleic Acids Res. 42(22):e168), which is hereby incorporated by reference in its entirety) to identify insertions and deletions (InDels) after editing. InDel quantification was performed on the sequences using the TIDE online tool (www.deskgen.com/landing/tide.html) (See, M. Sadelain, N. Engl. J. Med. 365, 1735-7 (2011), which is hereby incorporated by reference in its entirety.
T Cells were electroporated and edited as in Example 2 and allowed to recover for a 4-day period in medium with serum, uridine, and UMP. On day 4, cells were shifted to UMP, uridine, or uracil source media. […]
To confirm the results on the genomic level, genomic DNA was harvested at the end of the experiment and InDels were quantified (FIG. 5D-FIG. 5E). FIG. 5D compares the frequency of InDels in different culture conditions for cells not exposed to 5-FOA.

CCR5 knockout T cells = experiment: Growth time course with/without UMP or uridine; type: cell-based, human; details: metabolite 250 μg/ml
Protocol: (§1) Genomic DNA was harvested using QUICKEXTRACT™ DNA Extraction Kit (Epicentre). Cells were counted on an automated cell counter using Trypan blue staining or on a CytoFLEX flow cytometer (Beckman Coulter) with automatic plate reader using COUNTBRIGHT™ beads (ThermoFisher) as a reference for normalizing the values. Alternatively, cells were analyzed after staining with fluorochrome-labelled antibodies (Biolegend) on an ACCURI™ C6 flow cytometer (BD Biosciences), which also measures volumes, or a FACS ARIA™ II SORP cell sorter (BD Biosciences). Data was analyzed using Excel (Microsoft) and FlowJo software (Tree Star).
(§2) T Cells were electroporated and edited as in Example 2 and allowed to recover for a 4-day period in medium with serum, uridine, and UMP. On day 4, cells were shifted to UMP, uridine, or uracil source media.
(§3) To evaluate whether the UMPS knockout leads to differential cell proliferation if cultured without the addition of Uridine or Uridine monophosphate (UMP), the cell counts in culture were followed over time by automatic cell counting with Trypan blue staining. UMPS knockout led to lower cell counts from day 2 after electroporation, compared to cells that were mock electroporated or electroporated using Cas9 targeting a different genomic locus (i.e., CCR5) (FIG. 5B).

Mock T cells [1] = experiment: Growth time course with/without UMP or uridine; type: cell-based, human; details: metabolite 250 μg/ml
Protocol: as §1, §2, §3

UMPS knockout T cells [2] = experiment: Growth time course with/without UMP or uridine; type: cell-based, human
Protocol: as §1, §2, §3

Mock T cells [3] = experiment: 5-FOA selection, cell counts after 4 days; type: cell-based, human
Protocol: (§4) 5-FOA selects for uracil auxotrophic cells in other organisms (e.g. Boeke et al. 1984, Mol. Gen. Genet. 197(2):345-6), which is hereby incorporated by reference in its entirety). To investigate the potential utility of 5-FOA for the selection of uracil auxotrophs among human cells, the UMPS gene was targeted in human T cells by Cas9-gRNA complex electroporation followed by recovery (as shown in Example 2) followed by an assay of resistance to 5-FOA treatment (FIG. 3A). Cells were grown in 5-FOA and a variety of combinations of serum and uracil sources for 4 days before cell counting was performed.

UMPS-7 targeted T cells = experiment: 5-FOA selection, cell counts after 4 days; type: cell-based, human
Protocol: as §4

UMPS knockout T cells [4] = experiment: Uracil auxotrophy growth assay after 5-FOA selection; type: cell-based, human; details: after 4 days 5-FOA selection, 4 days in supplemented media, without serum
Protocol: To assay whether or not the cells selected for by 5-FOA treatment were uracil auxotrophs, mock or UMPS targeted T cells were exposed to 5-FOA as shown in Example 4. Following 4 days of 5-FOA selection, the population of cells was split into an uracil containing media (UMP, uridine or both) and an uracil deficient media. A growth assay was subsequently performed by cell counting after following 4 days incubation in test media (Day 8) (FIG. 4A). In all cases, cell growth in the mock targeted cell cultures was negligible and independent of uracil source supplementation—indicating successful killing of non-UMPS targeted cells during the 5-FOA selection step (FIG. 4B-FIG. 4D).

[5] = system: UMPS wild-type K562 cells; experiment: K562 xenograft model, bioluminescence imaging; type: in vivo, NSG mice; details: subcutaneous xenograft, normal or UTA supplemented food
Description: (§5) For the K562 xenograft assay, 6 to 12 weeks old male NOD SCID gamma mouse (NSG) mice were transplanted with 1×10^6 K562 cells resuspended in […]® protein mixture (Corning, Inc.) 1:1 diluted with PBS under anesthesia. All animals were kept and handled according to institutional guidelines and the experimental protocol was approved by Stanford University's Administrative Panel on Laboratory Animal Care.
(§6) The previously engineered UMPS^KO/KO K562 cell line expressing firefly luciferase (FLuc) was used in a xenograft model in NSG mice. […] Cas9 RNP is targeted to exon 1 of the HBB locus with a guide RNA and a DNA donor template transduced by rAAV6 which carries a FLuc-2A-GFP-polyA cassette under control of the SFFV promoter. FACS analysis was performed four days after targeting of K562 cells to evaluate GFP expression before sorting of the GFP+ population. In a control group administered the AAV only, 1.61% of the cells were GFP+, and […].
(§7) UTA was acquired from Accela ChemBio Inc. and added to make the 8% (w/w) to Teklad mouse food (Envigo) and the food irradiated before use. […]
(§8) UMPS^KO/KO K562 cells or control cells were transplanted subcutaneously and observed weekly with bioluminescence imaging. Luminescence imaging of K562 cells was performed 5 minutes after intraperitoneal (ip) injection of 125 mg/kg D-Luciferin (PerkinElmer) on an IVIS Spectrum imaging system (PerkinElmer). […]

UMPS^KO/KO K562 cells = experiment: K562 xenograft model, bioluminescence imaging; type: in vivo, NSG mice; details: subcutaneous xenograft, food with 8% UTA vs food without UTA
Description: as §5, §6, §7, §8

[6] = system: UMPS^KO/KO engineered hES cells; experiment: Teratoma formation from engineered hES cells; type: in vivo, NSG mice
Protocol: To determine whether the safety switch can eradicate teratomas that originate from pluripotent cells, iPSCs or ES cells that were genetically modified (or control cells) were transplanted into mice. The cells expressed luciferase for in vivo detection. 1×10^6 UMPS-engineered hESCs were resuspended in a 100 μl of […]® protein mixture (Corning, Inc.) and PBS mixture and injected into the gastrocnemius muscle of the right hind leg of anesthetized NSG mice. The mice were followed up for tumor formation by tumor size measurement and by bioluminescence imaging. After establishment of tumors, whether withdrawal of Uridine triacetate (UTA) led to tumor regression was tested. At the endpoint (tumor sizes above 1.7 cm or impairment of mouse activity, otherwise 24 weeks) tumor was explanted and fixated for histological analysis.
Auxotrophic cell proliferation of the UMPS^KO/KO engineered hES cells in vivo was also analyzed. […] Bone marrow is analyzed at the time that the animal dies or is sacrificed (latest 16 weeks after injection). […] Groups were compared by statistical tests as indicated using Prism 7 (GraphPad).

[7] = cited from earlier work
[8] = cells not exposed to 5-FOA, end of experiment, metabolite 250 μg/ml
[9] = UMPS knockout, metabolite 250 μg/ml

UMPS-6: sgRNA for UMPS exon 1, target sequence + PAM GGCGGTCGCTCGTGCAGCTT TGG (SEQ ID NO: 6) (guide GGCGGTCGCTCGTGCAGCTTTGG; listed as DNA, chemistry not given here; the letters are possibly those of the target site; listed as Homo sapiens)
ICE InDels (%) (UMPS locus): 12% | ICE-D InDels (%) (UMPS locus): 11%

UMPS-3: sgRNA for UMPS exon 1, target sequence + PAM CCCCGCAGATCGATGTAGAT GGG (SEQ ID NO: 4) (guide CCCCGCAGATCGATGTAGATGGG; target sequence plus PAM, further chemistry not given here; listed as Homo sapiens)
ICE InDels (%) (UMPS locus): 45% | ICE-D InDels (%) (UMPS locus): 43%

O=c1ccn([C@@H]2O[C@H](COP(=O)(O)O)[C@@H](O)[C@H]2O)c(=O)[nH]1 [UMP, Uridine monophosphate]
Alleles with frameshift InDels, Percent of alleles (without 5-FOA) (UMPS edited T cells; TIDE, day 8, metabolite 250 μg/ml): 46.1% | Alleles with InDels, Percent of alleles (without 5-FOA) (UMPS edited T cells; TIDE, metabolite 250 μg/ml): 71.1% | frameshift InDel frequency, Percent (UMPS edited T cells; [8]): 46.1% | overall InDel frequency, Percent (%) (UMPS edited T cells; [8]): 71.1% | Predicted viable cell counts, Cells with In-frame InDel (UMPS edited T cells; day 8, metabolite 250 μg/ml): 908000 | Predicted viable cell counts, Cells with frameshift InDel (UMPS edited T cells; day 8, metabolite 250 μg/ml): 1670000 | Predicted viable cell counts, Cells without InDel (UMPS edited T cells; day 8, metabolite 250 μg/ml): 1049070 | Cell density, Day 1 (CCR5 knockout T cells): 1.02E+06 cells per ml | Cell density, Day 2 (CCR5 knockout T cells): 1.80E+06 cells per ml | Cell density, Day 4 (CCR5 knockout T cells): 3.32E+06 cells per ml | Cell density, Day 6 (CCR5 knockout T cells): 3.80E+06 cells per ml | Cell density, Day 8 (CCR5 knockout T cells): 4.03E+06 cells per ml | Cell density, Day 1 (Mock T cells [1]): 9.83E+05 cells per ml | Cell density, Day 2 (Mock T cells [1]): 2.01E+06 cells per ml | Cell density, Day 4 (Mock T cells [1]): 3.80E+06 cells per ml | Cell density, Day 6 (Mock T cells [1]): 4.18E+06 cells per ml | Cell density, Day 8 (Mock T cells [1]): 3.90E+06 cells per ml | Cell density, Day 1 (UMPS knockout T cells [2]; [9]): 8.74E+05 cells per ml | Cell density, Day 2 (UMPS knockout T cells [2]; [9]): 1.86E+06 cells per ml | Cell density, Day 4 (UMPS knockout T cells [2]; [9]): 3.47E+06 cells per ml | Cell density, Day 6 (UMPS knockout T cells [2]; [9]): 3.88E+06 cells per ml | Cell density, Day 8 (UMPS knockout T cells [2]; [9]): 3.63E+06 cells per ml | Number of viable cells per ml, Day 1 (UMPS knockout T cells [2]; [9]): 874000 cells per ml | Number of viable cells per ml, Day 2 (UMPS knockout T cells [2]; [9]): 1860000 cells per ml | Number of viable cells per ml, Day 4 (UMPS knockout T cells [2]; [9]): 3470000 cells per ml | Number of viable cells per ml, Day 6 (UMPS knockout T cells [2]; [9]): 3880000 cells per ml | Number of viable cells per ml, Day 8 (UMPS knockout T cells [2]; [9]): 3630000 cells per ml | growth of UMPS edited culture (UMPS knockout T cells [2]; exogenous uracil source 250 μg/ml): rescued the growth of an UMPS edited culture to the same level as mock edited cells | cell proliferation after UMPS knockout (UMPS knockout T cells [2]; supplemented at 250 μg/ml): not impaired | Average of cells per volume unit (Mock T cells [3]; Mock, 4 days in 5-FOA without serum, with substrate): 24770.99 cells per volume unit | survival in 5-FOA compared to control (Mock T cells [3]; mock treated cells): improved the survival | survival in 5-FOA compared to control (UMPS-7 targeted T cells; UMPS targeted cells): improved the survival | Average of cells per volume unit (UMPS-7 targeted T cells; UMPS-7, 4 days in 5-FOA without serum, with substrate): 58299.26 cells per volume unit | Cells counts on Day 8 (UMPS knockout T cells [4]): 9978 and 6392

CC(=O)OC[C@H]1O[C@@H](n2ccc(=O)[nH]c2=O)[C@H](OC(C)=O)[C@@H]1OC(C)=O [UTA, uridine triacetate]
tumor burden of UMPS wild-type K562 cells [5]: increase in tumor burden | luminescence of UMPS^KO/KO K562-derived tumors (UMPS^KO/KO K562 cells): only increased in the mice fed with 8% UTA | Teratoma weight, Weight [g] ([6]; NSG mice fed 8% (w/w) UTA food, 7 weeks after cell injection into hind leg, per mouse): 3.11 g and 0.033 g and 2.92 g and 1.54 g and 0.937 g | teratoma formation ([6]; mice fed with UTA, 7 weeks after cell injection): large teratomas | increase of uridine serum levels ([7]; humans and mouse models, administration of prodrug): greater than 10 fold | tolerability ([7]; mice, food enriched with 8% (w/w) UTA): well tolerated

B1: UMPS-7: sgRNA for UMPS exon 1, target sequence + PAM … TGG (SEQ ID NO: 5); gRNA SEQ ID NO: 1 (nucleic acid)
guide: GCCCCGCAGAUCGAUGUAGAGUUUUAGAGCUAGAAAUAGCAAGUUAAAAUAAGGCUAGUCCGUUAUCAACUUGAAAAAGUGGCACCGAGUCGGUGCUUUU
modifications: listed as RNA, chemistry not given here
ICE InDels (%) (UMPS locus): 39% | ICE-D InDels (%) (UMPS locus): 93% | type of edits created (UMPS locus; detectable by ICE-D but not by ICE or TIDE): high proportion of large (greater than 30 bp) deletions | frequency of InDels in initial screening (UMPS locus; initial sgRNA screening): highest frequency of InDels
